Test results from patent publication US20250270180A1, “MEK INHIBITORS AND THERAPEUTIC USES THEREOF” (Immuneering Corporation, priority 2020, published 2025).
pIC50: −log10 of the molar value.

How the values were obtained:
PAMPA (pH 7.4) = conditions: PAMPA
Protocol: Each stock solution was diluted to 50 uM in pH 7.4 Prisma HT buffer (pION) and 200 ul was added to each well of the donor plate in triplicate. The polyvinylidene fluoride (PVDF, 0.45 μm) filter membrane on the acceptor plate was coated with 5 ul gastrointestinal tract lipid formulation (GIT-0, pION) and to each well of the acceptor plate, 200 μl of acceptor sink buffer (pION) was added. The acceptor filter plate was then carefully placed on top of the donor plate to form a sandwich. The sandwich was incubated at 25° C. for 4 h without stirring. UV-vis spectra of the solutions in the blank, reference, acceptor and donor plates were measured using a microplate reader (Tecan Infinite 200PRO M Nano Plus). Permeability values were calculated using the PAMPA explorer software v. 3.8.0.2 (pION).

[1] = Kinetic solubility (PBS pH 7.4; 4 hr); type: physicochemical; conditions: 10 mM PBS buffer, aqueous buffer, kinetic from dmso stock
Protocol: The plates were shaken for 4 h at room temperature in an Eppendorf Thermomixer. After incubation, the plates were centrifuged for 20 minutes at 4680 rpm. From the supernatant, 150 uL was transferred to a new 96 well plate and 50 uL DMSO was added to ensure continued dissolution. Samples were measured on LC-UV at injection volumes of 1 and 8 uL. Peak areas were determined and compared to peak areas obtained using calibration curves of the test compounds in DMSO.

[2] = eLogD (lipophilicity; pH 7.4); type: physicochemical
Protocol: Test compounds were dissolved in DMSO at a concentration of 10 mM and further diluted with methanol: water 1:1. Samples were analyzed using gradient HPLC with three different isocratic mobile phases of 0.25% octanol in methanol (60, 65 and 70%) and 20 mM MOPS buffer (pH 7.4) with decylamine. If needed, (for low ElogDoct compounds) the isocratic mobile phases were adjusted to e.g. 40, 45 and 50% methanol. Peaks were detected using a diode array at absorbance 220-320 nm.
Capacity factors data (k′ _=(tr−_t0)/t0) obtained at various amounts of methanol were extrapolated to 0% methanol and k′w values are determined using a linear procedure. ElogDoct (7.4) is calculated using a series of reference standards with known Log D values. Each experiment was performed in triplicate.

[3] = Single dose PK profile (plasma and tumor) in Colon26 tumor bearing mice; type: in vivo; conditions: female, mouse
Protocol: Female mice (either athymic BALC/c nude, or BALB/c mice) were inoculated with a single subcutaneous injection of 0.1 ml of mouse Colon-26 cell suspension (1×10^5 cells per animal) in the right flank region. Colon26 (C26) tumor bearing mice received a single dose (3-4 mice/treatment) of vehicle (10% DMSO/90% [20% SBE-B-CD in saline], pH 5) containing compounds at indicated dose by gavage (p.o.) or intravenous administration (i.v.) and at various time points (0.16, 0.5, 1, 2, 4, 8, 12, 16, 24-hour) post dose humanely euthanized. Blood was obtained through cardiac puncture into K+EDTA tubes, mixed by inversion and centrifuged to obtain the plasma. Tissues were excised, cleaned of surrounding tissues. All samples immediately snap frozen in liquid N2 prior to LC-MS/MS analysis (using Agilent Poroshell-120 EC-C18 (4.0 μm) 2.1×50 mm, and a Water+API-4000 Electrospray MS unit). The results of this study are illustrated in FIGS. 16, and 17. Tables 11 describes a single does PK profile (plasma) and Table 12 describes a single dose PK profile (tumor).

A549 (KRAS-G12S) pERK = experiment: Cell-based pERK dose response study, A549; conditions: Homo sapiens; A549; 12-point dose; 2 hours
Protocol: Materials and Methods: A549 or A375 cells were seeded in 6-well plates at an appropriate seeding density on day 0. On day 2 or 3, after checking the health and confluency of cells, the media was aspirated and replaced with 1 mL media containing a predetermined concentration of compound and incubated for 2 hours. After 2 hours, the media was aspirated, and the cells washed 2 times with cold PBS. Cells were lysed on ice, with 50 uL 1×CST lysis buffer+1 mM PMSF for 5 minutes. After 5 minutes, cells were removed using a scraper and transferred to cold 1.5 mL tubes, and centrifuged for 10 min, 4° C., 14,000×g. Supernatant was gently removed and snap frozen in liquid nitrogen. Protein concentration of the lysate was determined using Bradford Reagent (analyzed using SpectraMax M2E) and diluted to 1 mg/mL or pERK or 1.5 mg/mL for pMEK analysis. […] All dilutions were in Milk-free antibody diluent.

A549 pMEK:tMEK (CRAF) = experiment: CRAF-bypass pMEK:tMEK, A549; type: cell-based
Protocol: Materials and Methods: A549 or A375 cells were seeded in 6-well plates at an appropriate seeding density on day 0. On day 2 or 3, after checking the health and confluency of cells, the media was aspirated and replaced with 1 mL media containing a predetermined concentration of compound and incubated for 2 hours. After 2 hours, the media was aspirated, and the cells washed 2 times with cold PBS. Cells were lysed on ice, with 50 uL 1×CST lysis buffer+1 mM PMSF for 5 minutes. After 5 minutes, cells were removed using a scraper and transferred to cold 1.5 mL tubes, and centrifuged for 10 min, 4° C., 14,000×g. Supernatant was gently removed and snap frozen in liquid nitrogen. Protein concentration of the lysate was determined using Bradford Reagent (analyzed using SpectraMax M2E) and diluted to 1 mg/mL or pERK or 1.5 mg/mL for pMEK analysis. Cell lysates were then analyzed for phosphor-ERK/total-ERK levels on a Jess system (ProteinSimple; Cat #JS3346) using the following antibodies: tERK1/2 (CST 4696; 1:50) and pERK1/2 (CST 4377; 1:50). […]
A549 or […] cells were treated in duplicate for two hours with compounds at varying concentrations. […] After storage, the lysate was quantified with the Bradford assay. Before the lysates were prepared to run on the Jess, the lysates were diluted to 1 mg/mL for pERK analysis and 1.5 mg/mL pMEK analysis using quantitative Western blotting. […]

[4] = Human liver microsome stability (t1/2, Clint); type: in vitro ADME; conditions: microsomes, pH 7.4, 0.5 mg/ml microsomal protein
[5] = Mouse liver microsome stability (t1/2, Clint); type: in vitro ADME; conditions: liver microsomes, pH 7.4, 0.5 mg/ml microsomal protein
Protocol: (Eppendorf 5804R). […] The disappearance of the parent compound was determined.

CYP450 2D6 = CYP450 2D6 (Homo sapiens, UniProt P10635)
CYP450 2D6, sequence (P10635 whole entry): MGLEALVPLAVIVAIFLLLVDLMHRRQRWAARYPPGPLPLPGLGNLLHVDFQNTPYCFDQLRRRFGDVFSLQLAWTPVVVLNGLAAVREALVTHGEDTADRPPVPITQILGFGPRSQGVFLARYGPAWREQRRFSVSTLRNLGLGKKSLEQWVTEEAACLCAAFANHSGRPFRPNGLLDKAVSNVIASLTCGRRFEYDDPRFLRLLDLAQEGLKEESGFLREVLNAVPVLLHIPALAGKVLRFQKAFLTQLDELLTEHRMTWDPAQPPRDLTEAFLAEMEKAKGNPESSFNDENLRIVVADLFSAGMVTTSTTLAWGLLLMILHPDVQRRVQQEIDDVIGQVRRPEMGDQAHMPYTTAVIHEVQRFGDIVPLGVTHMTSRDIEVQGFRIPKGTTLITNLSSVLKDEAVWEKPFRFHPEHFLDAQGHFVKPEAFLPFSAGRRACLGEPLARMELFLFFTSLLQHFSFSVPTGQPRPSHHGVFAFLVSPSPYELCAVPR

in vitro = conditions: human, Caco-2
[6] = Inv New Drugs (2018) 36, 1037-1043; cited from earlier work
[7] = athymic BALB/c nude or BALB/c, iv, 25 mg/kg, plasma, 25 mpk i.v.
[8] = athymic BALB/c nude or BALB/c, po, 25 mg/kg, plasma, 25 mpk p.o.
[9] = athymic BALB/c nude or BALB/c, po, 100 mg/kg, plasma, 100 mpk p.o.
[10] = iv, 25 mg/kg, plasma, 25 mpk i.v.
[11] = iv, 25 mg/kg, tumor, 25 mpk i.v.
[12] = po, 25 mg/kg, plasma, 25 mpk p.o.
[13] = po, 25 mg/kg, tumor, 25 mpk p.o.
[14] = po, 100 mg/kg, plasma, 100 mpk p.o.
[15] = po, 100 mg/kg, tumor, 100 mpk p.o.

Q: What does the source list for `CNS(=O)(=O)Nc1cccc(Cc2c(CN3CCC3)c3ccc(OC(=O)N(C)C)cc3oc2=O)c1F` [Compound 197]?
A: Papp at 4 h, 50 uM (PAMPA (pH 7.4)): 51 ×10⁻⁶ cm/s; solubility kinetic at 4 h [1]: > 80 µM; chromatographic logD [2]: 2.9; Tmax [3, 7]: 9.6 min; half-life [3, 7]: 143 min; bioavailability [3, 8]: 47%; half-life [3, 8]: 73.8 min; bioavailability [3, 9]: 100%; half-life [3, 9]: 82.8 min; AUC(0-inf) [3, 10]: 7740 ng·h/mL; AUC(0-t) [3, 10]: 7730 ng·h/mL; Cmax [3, 10]: 10900 ng/mL; AUC(0-inf) [3, 11]: 8360 ng·h/mL; AUC(0-t) [3, 11]: 8320 ng·h/mL; Cmax [3, 11]: 6750 ng/mL; Tmax [3, 11]: 30 min; AUC(0-inf) [3, 12]: 3650 ng·h/mL; AUC(0-t) [3, 12]: 3640 ng·h/mL; Cmax [3, 12]: 2320 ng/mL; Tmax [3, 12]: 30 min; AUC(0-t) [3, 13]: 3460 ng·h/mL; Cmax [3, 13]: 1920 ng/mL; Tmax [3, 13]: 60 min; bioavailability [3, 13]: 42%; AUC(0-inf) [3, 14]: 31100 ng·h/mL; AUC(0-t) [3, 14]: 31100 ng·h/mL; Cmax [3, 14]: 14200 ng/mL; Tmax [3, 14]: 9.6 min; AUC(0-inf) [3, 15]: 37100 ng·h/mL; AUC(0-t) [3, 15]: 36900 ng·h/mL; Cmax [3, 15]: 12600 ng/mL; Tmax [3, 15]: 60 min; bioavailability [3, 15]: 111%; pIC50 (A549 (KRAS-G12S) pERK): 8.37; CRAF A549 pMEK:tMEK [100 nM; 2 hr] (A549 pMEK:tMEK (CRAF)): 0.49; half-life at 1 uM [4]: 38 min; half-life at 1 uM [5]: 53 min; microsomal CLint at 1 uM [5]: 26 µL/min/mg

Q: Which “2D6*” value (CYP450 2D6) does the source give for `C=C[C@H]1C[N@@]2CC[C@H]1C[C@@H]2[C@@H](O)c1ccnc2ccc(OC)cc12` [Quinidine] here?
A: 99.7

Q: For `CC(=O)CC(c1ccccc1)c1c(O)c2ccccc2oc1=O` (centres unmarked) [Warfarin], which Papp A→B at 2 h, 10 μM (in vitro) is on record?
A: > 1 ×10⁻⁶ cm/s

Q: For `Cn1cnc2c(F)c(Nc3ccc(Br)cc3F)c(C(=O)NOCCO)cc21` [binimetinib], which “muscle gain in patients with BTC” value [6] is on record?
A: promote muscle gain
